For test [1], the target named is T1, casein kinase 1ε (Homo sapiens, UniProt P49674).
T1 construct: made in house
Nature of the test: Casein Kinase Epsilon 33P-ATP Filter Plate Assay. The test is classed as biochemical. As to conditions: phosphorylation of casein, 33P-ATP with 10 μM cold ATP, 2 hours at room temperature; * denotes average of two or more determinations; read-out: CKIε Inhibition IC50. Here is the method: Casein Kinase Epsilon ^33P-ATP Filter Plate Assay for Screening CK1ε Inhibitors Purpose: This assay measures the effect of compounds to inhibit the phosphorylation of the substrate casein by the enzyme casein kinase 1ε using an in vitro ^33P-ATP filtration assay. Compounds are tested at five concentrations in duplicate in order to generate IC50 values or % inhibition at a 10 micromolar concentration that are summarized in Table 4.
Enzyme: • Casein Kinase 1ε final concentration 0.58 mg/ml obtained from fermentation and purification processes as are well known to one skilled in the art. The above are stored as 100 μL aliquots at minus 80° C.
Compounds: • Compounds for testing are supplied as frozen 10 mM compound stock dissolved in 100% DMSO. Assay Conditions:
Final total assay volume per well is equal to 50 μL made up as follows: • 5 μL of diluted compound stock (10, 1, 0.1, 0.01 or 0.001 μM), • 5 μL of dephosphorylated casein final concentration 0.2 μg/μL, • 20 μL of CK1ε final concentration 3 ng/μL, and • 20 μL of γ-^33P-ATP final concentration 0.02 μCi/μL mixed with cold ATP (10 μM final). Methodology: • 1. 500 mL of fresh assay buffer is made: 50 mM Tris pH 7.5, 10 mM MgCl2, 2 mM DTT and 1 mM EGTA • 2. Compounds to be evaluated are obtained as 10 μL of 10 mM stock dissolved in 100% DMSO. Using a Biomek 2000 liquid handling robot, serial dilutions are made to yield 10, 1, 0.1, 0.01 and 0.001 μM final compound dilutions added as 5 μL additions to Falcon U bottom plates. Typically 8 compounds are tested per 96 well plate with column 1 and 12 serving as control wells. A routine screening assay will consist of 32 compounds, which equals 4 assay plates. • 3. Assay plate maps are set up according to the following pattern CKlePlateMap.xls
• 4. Once 5 μL of compound has been added as indicated, 5 μL of dephosphorylated casein (dissolved in distilled H2O)(0.2 μg/μL) and 20 μL CK1ε (3 ng/μL) are added to the appropriate wells. • 5. Finally 20 μL γ-^33P-ATP (0.02 μCi/μL)/10 μM cold ATP are added (equals approximately 2×10^6 CPM per well). • 6. The Falcon U-Bottom assay plate containing the above 50 μL reaction volume is vortexed and then incubated at room temperature for 2 hours. • 7. At the end of 2 hours, the reaction is stopped by the addition of 65 μL of ice cold 2 mM cold ATP (made up in assay buffer) to the assay plates using a Beckman Multimek • 8. At the same time 25 μL 100% ice cold TCA made up in distilled H2O is added to a matching number of Millipore MAPH filter plates. • 9. Using a handheld 8-channel pipettor, 100 μL of the reaction mixture is transferred from the Falcon U-Bottom Plate to the Millipore MAPH filter plates presoaked with TCA. • 10. The Millipore MAPH filter plates are mixed gently and allowed to sit at room temperature for at least 30 minutes to precipitate the proteins. • 11. After 30 minutes the filter plates are placed on a Millipore vacuum manifold and filtered at no more than 8 mm Hg as the MAPH filters tend to “air lock” at higher vacuum settings. • 12. The filter plates are sequentially washed and filtered with 2×150 μL 20% TCA, 2×150 μL 10% TCA and 2×150 μL 5% TCA (total of 6 washes per plate/900 μL per well). • 13. Plates are allowed to dry overnight at room temperature. The next day 40 μL Packard Microscint-20 Scintillation Fluid is added per well using a Titertek Multidrop dispenser; the plates are sealed and counted for 2 minutes/well in a Packard Topcount NXT Scintillation Counter (CPM values/well are captured).
Calculation: • 1. Counts Per Minute (CPM) data is captured and imported into a proprietary data calculation and archiving database (Activity Base by IDBS version 5.0). • 2. Column 1 for each plate reflects total phosphorylation activity of the enzyme in the absence of any inhibiting compound and thus represents 100%. Column 12 reflects any nonspecific phosphorylation/retained radioactivity activity in the absence of inhibiting compound and enzyme. […]

The subject of test [2] is Mper1-luc Rat-1 fibroblasts (P2C4). Nature of the test: Cellular Circadian Assay (Mper1-luc reporter, period lengthening). In kind it is cell-based. Particulars: effective micromolar concentration that induced a 1 hour lengthening of period. From the text:
U.S. Pat. No. 6,555,328 B1 discloses screening methods in cells to identify compounds that alter circadian rhythms based on a test compound altering the ability of human casein kinase 1ε and/or human casein kinase 1δ to phosphorylate the human clock proteins hPER1, hPER2 and hPER3. For example, HEK293T cells are co-transfected with hCKIε and Per1 or Per2. For the purpose of evaluating the relevancy of CKIε inhibition and CKIε inhibitors to circadian biology, a high-throughput cellular assay (33rd Annual Meeting, Soc. for Neurosci., Nov. 8-12, 2003, Abstract numbers 284.1, 284.2, and 284.3) was developed in which circadian rhythm could be monitored in a routine manner. The assay consists of Rat-1 fibroblasts stably expressing an Mper1-luc construct, thus enabling the determination of the rhythmic activation of the Mper1 promoter in living cells by repeatedly estimating luciferase activity by monitoring light-output over several days. The repeated measure format of the assay permits accurate and reproducible assessment of the concentration-dependent effects of CKIε inhibitors on circadian rhythm and provides the nexus for relating CKIε inhibition to circadian period alteration.
Cell culture: Mper1-luc Rat-1 fibroblasts (P2C4) cultures were split every 3-4 days (˜10-20% confluence) onto 150 cm^2 vented polystyrene tissue culture flasks (Falcon #35-5001) and maintained in growth media [EMEM (Cellgro #10-010-CV); 10% fetal bovine serum (FBS; Gibco #16000-044); and 50 I.U./mL penicillin-streptomycin (Cellgro #30-001-C1)] at 37° C. and 5% CO2. […] Zeocin-resistant stable transfectants were assessed for reporter expression by supplementing growth media with 100 μM luciferin (Promega #E1603) and assaying luciferase activity on a TopCount scintillation counter (Packard Model #C384V00). Rat-1 clones expressing both Zeocin-resistance and mPer1-driven luciferase activity were synchronized by 50% horse serum [HS (Gibco #16050-122)] serum shock and assessed for circadian reporter activity. […]

SMILES strings stand for the structures. A value given as a limit tells only on which side of the number the result lay.

T1 sequence (P49674 whole entry): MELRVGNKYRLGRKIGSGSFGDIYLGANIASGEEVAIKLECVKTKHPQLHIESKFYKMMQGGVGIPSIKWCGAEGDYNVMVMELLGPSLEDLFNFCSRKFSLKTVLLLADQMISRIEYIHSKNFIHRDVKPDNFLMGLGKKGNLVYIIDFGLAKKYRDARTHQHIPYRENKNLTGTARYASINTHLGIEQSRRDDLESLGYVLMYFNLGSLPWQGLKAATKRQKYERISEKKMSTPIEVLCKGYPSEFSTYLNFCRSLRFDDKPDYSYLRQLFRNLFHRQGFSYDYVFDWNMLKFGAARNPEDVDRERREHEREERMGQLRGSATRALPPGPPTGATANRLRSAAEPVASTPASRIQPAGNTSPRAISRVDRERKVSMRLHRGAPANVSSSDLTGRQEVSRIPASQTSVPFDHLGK

In the case of `COc1ccc2[nH]c(C(N)=O)c(Sc3ccccc3N)c2c1` [Ie, 3-(2-Amino-phenylsulfanyl)-5-methoxy-1H-indole-2-carboxylic acid amide], the IC50 in test [1] came to 180 nM. Moreover, the “Cell Assay ECΔτ+1h” value in test [2] was >10 µM.

The record behind these values is patent US8008340B2, “3-arylthioindole-2-carboxamide derivatives and analogs thereof as inhibitors of casein kinase I” (Aventis Pharmaceuticals Inc., priority 2004, dated 2011).
